Laboratory results: patent US6538151B1, “Modifications of 2-amino-4-(4-fluorobenzylamino)-1-ethoxycarbonylaminobenzene, and processes for their preparation” (Asta Medica Aktiengesellschaft, priority 1997, dated 2003)

Assays:
Assay type in all cases: physicochemical
[1] = Solubility behaviour of the crystals; details: finely granular crystals
Source text: The modifications B and C can be employed for specific pharmaceutical forms such as capsules and dry ampoules.

[2] = Stability of the crystal structure (lattice) on heating and storage
Method: The crystal structure is stable up to approx. 80° C.

[3] = Lattice stability on contact with solvents; details: contact with solvents such as water, ethanol, acetone or toluene

Row | Compound | speed of dissolution of crystals [1] | lattice changes after storage ([2]; relatively long storage at temperatures up to 60° C. and relative atmospheric humidities up to 70%) | crystal structure is stable up to (temperature) ([2]; solid state, temperature limit of lattice stability) | lattice change on contact with solvents [3]
1 | CCOC(=O)Nc1ccc(NCc2ccc(F)cc2)cc1N [modification C, 2-amino-4-(4-fluorobenzylamino)-1-ethoxycarbonylaminobenzene] | particularly rapidly soluble | – | – | –
2 | CCOC(=O)Nc1ccc(NCc2ccc(F)cc2)cc1N [modification A, 2-amino-4-(4-fluorobenzylamino)-1-ethoxycarbonylaminobenzene] | – | no lattice changes are observed | approx. 80 °C | no lattice change
